Reference: article PMC8126888 (RSC Medicinal Chemistry, 2020)
Values after ≈ are worked out from the molar mass of the structure shown. Read-outs that look alike come from different tables or passages of the source.

Experiments:
[1] = tested on: primary peritoneal mouse macrophages (PMM); test: cells; conditions: Macrophage
in vitro [2] = conditions: human, microsomes, human liver microsomes
in vitro [3] = conditions: mouse, microsomes, mouse liver microsomes
physchem [4] = conditions: HPLC, Ascentis Express RP Amide column, pH 7.4, eLogD, experimental
in vitro [5] = conditions: human
in vitro [6] = conditions: human, HFF-1 cells
in vitro [7] = conditions: human, HepG2 cells
in vitro [8] = conditions: PAMPA
[9] = tested on: Leishmania infantum MHOM/MA(BE)/67/ITMAP263 intracellular amastigotes; test: microbe, parasite or virus in culture; conditions: Macrophage, in Mus musculus
[10] = tested on: Trypanosoma cruzi, Tulahuen CL2, beta-galactosidase strain; test: microbe, parasite or virus in culture
[11] = tested on: L. infantum MHOM/MA/67/ITMAP263 axenic Promastigotes; test: microbe, parasite or virus in culture; conditions: Leishmania infantum, read-out: L. infantum MHOM/MA/67/ITMAP263 axenic Promastigotes IC50
in vitro [12] = conditions: human, THP-1 cells differentiated with PMA
in vitro [13] = conditions: human, HFF-1 cells; remark: listed apart in the source
in vitro [14] = conditions: human, HepG2 cells; remark: listed apart in the source
in vitro [15] = conditions: PAMPA; remark: listed apart in the source
[16] = tested on: Leishmania infantum (MHOM/MA/67/ITMAP-263) intracellular amastigotes in THP-1; test: microbe, parasite or virus in culture; conditions: THP-1, read-out: L. infantum MHOM/MA/67/ITMAP263 intracellular amastigotes THP-1 cells IC50
physchem [17] = conditions: PBS, pH 7.4, aqueous buffer, kinetic from dmso stock
in vitro [18] = conditions: human, HepG2 cells; remark: listed apart in the source
[19] = tested on: axenic L. don. amastigotes (MHOM/SD/62/1S-CL2, LdBOB); test: microbe, parasite or virus in culture; conditions: Leishmania donovani, read-out: L. donovani MHOM/SD/62/1SCL2D axenic-cidal amastigotes IC50
[20] = tested on: L. donovani MHOM/SD/62/1SCL2D intracellular amastigotes; test: microbe, parasite or virus in culture; conditions: Leishmania donovani, read-out: L. donovani MHOM/SD/62/1SCL2D intracellular amastigotes IC50
in vitro [21] = conditions: plasma, PPB (%)
in vitro [22] = conditions: human, HFF-1 cells; remark: listed apart in the source
in vitro [23] = conditions: human, HepG2 cells; remark: listed apart in the source
in vitro [24] = conditions: PAMPA; remark: listed apart in the source
[25] = read-out: L. Inf. pIC50, from L. infantum intracellular amastigote IC50 (converted)
[26] = read-out: L. infantum MHOM/MA(BE)/67/ITMAP263 intracellular amastigotes IC50, intracellular amastigotes
[27] = MRC5, read-out: T. cruzi Tulahuen C4 (LacZ) IC50
[28] = read-out: L. Inf. pIC50, L. infantum intracellular amastigotes (converted)
[29] = read-out: L. Inf. pIC50 (converted)
[30] = read-out: L. infantum MHOM/MA(BE)/67/ITMAP263 intracellular amastigotes IC50

Row | SMILES | IC50 ([1]; read-out: PMM IC50) [µM] | microsomal CLint at 0.5 μM (in vitro [2]; pH 7.4, HLM CLint) [µL/min/mg] | microsomal CLint at 0.5 μM (in vitro [3]; pH 7.4, MLM CLint) [µL/min/mg] | chromatographic logD (physchem [4]) | CC50 at 3 days (in vitro [5]) [µM] | CC50 (in vitro [6]) [µM] | CC50 (in vitro [7]) [µM] | Papp (in vitro [8]) [×10⁻⁶ cm/s] | IC50 [9, 25] [µM] | IC50 [9, 26] [µM] | IC50 [10, 27] [µM] | IC50 [11] [µM] | CC50 at 120 h (in vitro [12]) [µM] | CC50 (in vitro [13]) [µM] | CC50 (in vitro [14]) [µM] | Papp (in vitro [15]) [×10⁻⁶ cm/s] | IC50 [9, 28] [µM] | IC50 [16] [µM] | other results
1 | COc1ccc(OC)c(S(=O)(=O)N(Cc2ncccn2)Cc2ncccn2)c1 [DNDI0003370115] | > 64 | 17 | 67 | 1.3 | > 64 | > 64 | > 64 | 25.1 | > 64 | > 64 | 61.4 | > 64 | – | – | – | – | – | – | –
2 | COc1ccc(S(N)(=O)=O)cc1S(=O)(=O)N(Cc1ccccc1)Cc1ccccc1 [DNDI0003578385] | > 64 | 58 | 366 | 3.5 | 13.3 | – | – | – | – | 0.56 | 4.66 | – | > 64 | 22.2 | > 64 | 3.76 | 0.562 | 5.75 | –
3 | O=C1c2ccccc2S(=O)(=O)N(Cc2ccccc2)C1Cc1ccccc1 (stereo not shown) [DNDI0003370098] | > 64 | 141 | 1060 | 3.6 | 30.8 | > 64 | > 64 | 4.11 | 11.7 | 11.7 | 9.38 | > 64 | – | – | – | – | – | – | –
4 | CCCCCOc1cc(C)c(C)cc1S(=O)(=O)NC1CCCC1 [DNDI0002550647] | 45.2 | 567 | 416 | – | 37 | – | – | – | – | – | 7.86 | – | > 50 | – | – | – | – | – | KS PBS - pH 2: 0.74 ug/mL; solubility kinetic (physchem [17]): 0.56 µg/mL (≈ 1.65 µM); CC50 (in vitro [18]): > 50 µM; IC50 [9, 29]: 1.05 µM; IC50 [9, 30]: 1.05 µM; IC50 [19]: 12 µM; IC50 [20]: 13 µM
5 | COc1ccc([S+](C)[O-])cc1S(=O)(=O)N(Cc1ccccc1)Cc1ccccc1 (stereo not shown) [DNDI0003578382] | > 64 | 125 | 397 | 3.6 | 21.3 | – | – | – | – | 0.59 | 16.9 | – | > 64 | > 64 | > 64 | 14 | 0.589 | 11.5 | –
6 | COc1ccc(OC)c(S(=O)(=O)N(Cc2ccc(F)cc2)c2ccc(F)cn2)c1 [DNDI0003370085] | > 64 | 230 | 1990 | 3.5 | > 64 | 15 | 16.4 | 7.1 | 41.7 | 41.9 | 5.17 | 33 | – | – | – | – | – | – | –
7 | COc1ccc(C(=O)N2CCOCC2)cc1S(=O)(=O)N(Cc1ccc(F)cc1)Cc1ccc(C(F)(F)F)nc1 [DNDI0003389644] | – | – | – | – | > 64 | – | – | – | 1.74 | – | – | – | – | – | – | – | – | – | KS PBS - pH 2 (ug/mL): 3.79 ug/mL; IC50 ([1]; read-out: PMM IC50 (uM)): > 64 µM; microsomal CLint at 0.5 μM (in vitro [2]; pH 7.4, HLM CLint (uL/min/mg)): 190 µL/min/mg; microsomal CLint at 0.5 μM (in vitro [3]; pH 7.4, MLM CLint (uL/min/mg)): 163 µL/min/mg; fraction unbound (in vitro [21]): 0.0409; solubility kinetic (physchem [17]): 3.32 µg/mL (≈ 5.85 µM); CC50 (in vitro [22]): 36.9 µM; CC50 (in vitro [23]): > 64 µM; Papp (in vitro [24]): 10 ×10⁻⁶ cm/s; IC50 ([9]; read-out: L. infantum MHOM/MA(BE)/67/ITMAP263 intracellular amastigotes IC50 (uM), intracellular amastigotes): 1.74 µM; IC50 ([10]; MRC5, read-out: T. cruzi Tulahuen C4 (LacZ) IC50 (uM)): 3.39 µM
8 | COc1ccc(Cl)cc1S(=O)(=O)N(Cc1ccccc1)C(Cc1ccccc1)C(N)=O (stereo not shown) [DNDI0003370116] | 32 | 752 | 801 | 4.2 | 9.62 | 37.5 | 39 | 5.17 | 4.68 | 4.73 | 5.3 | 30.4 | – | – | – | – | – | – | –
9 | CCCN(Cc1ccc(F)cc1)S(=O)(=O)c1cc([S+](C)[O-])ccc1OC (stereo not shown) [DNDI0003578384] | > 64 | 67 | 437 | 3.1 | > 64 | – | – | – | – | 11 | 38.5 | – | > 64 | > 64 | > 64 | 18.6 | 11 | > 64 | –
10 | COc1ccc(CN2CCCC2)cc1S(=O)(=O)N(Cc1ccc(F)cc1)Cc1ccc(F)cc1 [DNDI0003370114] | 8 | 62 | 144 | 4.4 | 6.87 | 13.8 | 3.25 | 0.64 | 2.95 | 2.92 | 3.27 | 0.72 | – | – | – | – | – | – | –
11 | C[S+]([O-])c1c(Cl)ccc2c1S(=O)(=O)N(Cc1ccccc1)CCO2 (stereo not shown) [DNDI0003578383] | > 64 | 33 | 423 | 3 | > 64 | – | – | – | – | 47.9 | 29.3 | – | > 64 | > 64 | > 64 | 22 | 47.9 | > 64 | –
12 | COCCN(Cc1ccccc1)S(=O)(=O)c1c(OC)ccc(Cl)c1S(C)(=O)=O [DNDI0003578381] | > 64 | 51 | 176 | 2.6 | > 64 | – | – | – | – | 50.8 | > 64 | – | > 64 | > 64 | > 64 | 14.6 | 51.3 | > 64 | –
13 | CCCCCOc1cc(C)c(Cl)cc1S(=O)(=O)NCc1cccs1 [DNDI0002572712] | 40.3 | 693 | 693 | – | 44.1 | – | – | – | – | – | 12.2 | – | > 50 | – | – | – | – | – | KS PBS - pH 2: 0.39 ug/mL; solubility kinetic (physchem [17]): 0.39 µg/mL (≈ 1.01 µM); CC50 (in vitro [18]): 40 µM; IC50 [9, 29]: 0.851 µM; IC50 [9, 30]: 0.85 µM; IC50 [19]: 4.4 µM; IC50 [20]: 12 µM
14 | COc1cc(S(=O)(=O)N(Cc2ccccc2)Cc2ccccc2)c(OC)cc1C [DNDI0002644002] | > 64 | 920 | 1080 | – | > 64 | – | – | – | – | – | > 64 | – | > 50 | – | – | – | – | – | KS PBS - pH 2: 0.41 ug/mL; solubility kinetic (physchem [17]): 0.41 µg/mL (≈ 0.996 µM); CC50 (in vitro [18]): 39 µM; IC50 [9, 29]: 0.537 µM; IC50 [9, 30]: 0.54 µM; IC50 [19]: 1.5 µM; IC50 [20]: 12 µM
15 | COCCN(Cc1ccccc1)S(=O)(=O)c1c(OC)ccc(Cl)c1[S+](C)[O-] (stereo not shown) [DNDI0003578380] | > 64 | 85 | 286 | 2.9 | > 64 | – | – | – | – | 26.7 | > 64 | – | > 64 | > 64 | > 64 | 17.6 | 26.9 | > 64 | –
